# According to patent US20030118627A1 (DABUR RESEARCH FOUNDATION, priority 2001, published 2003):
# Experiments:
# Swiss albino mice = conditions: both, mouse, in vivo, po, 15 days
# Method: Acute toxicity studies were performed using the oral route of administration.
# A batch of 5 female and 5 male mice each was administered the test substance by oral route. […] Another batch of 5 female and 5 male served as control.
# Observations were made three times on the day of dosing and twice daily thereafter for the remainder of 14 days or until reversible toxic signs or symptoms subsided. All gross visible toxic signs and symptoms were recorded. Body weights were recorded prior to dosing and weekly thereafter.
# MOLT 4 = experiment: MTT cytotoxicity assay, MOLT 4 leukemia; assay type: cell-based; conditions: Homo sapiens
# Method: (§1) Briefly, a […] MTT cytotoxicity assay was performed, which is based on the principle of uptake of MTT (3-(4,5-dimethylthiazol-2-yl)-2,5-diphenyl tetrazolium bromide), a tetrazolium salt, by the metabolically active cells where it is metabolized by active mitochondria into a blue colored formazan product that is read spectrophoto-metrically. MTT was dissolved in phosphate buffered saline with a pH of 7.4 to obtain an MTT concentration of 5 mg/ml; the resulting mixture was filtered through a 0.22 micron filter to sterilize and remove a small amount of insoluble residue. For each type of tumor cell, 20,000 to 50,000 cells were seeded in a 96-well culture plate and incubated with the combination in a CO2 incubator for 24 hours. […] The assay was terminated after 24 hours by adding 100 ug (20 ul) of MTT to each well, then incubating for additional one hour, and finally adding 50 ul of 10% SDS-0.01N HCl to each well to lyse the cells and dissolve formazan. After incubating for one hour, the plate was read spectrophotometrically at 540 nm and the percentage cytotoxicity calculated.
# U87MG = experiment: MTT cytotoxicity assay, U87MG glioblastoma; assay type: cell-based; conditions: Homo sapiens, U-87 MG, 24 h, read-out: ED50 values of cytotoxicity
# Method: as §1
# KB = experiment: MTT cytotoxicity assay, KB oral; assay type: cell-based; conditions: Homo sapiens, 24 h, read-out: ED50 values of cytotoxicity
# Method: as §1
# DU145 = experiment: MTT cytotoxicity assay, DU145 prostate; assay type: cell-based; conditions: Homo sapiens
# Method: as §1
# 293 = experiment: MTT cytotoxicity assay, 293 kidney; assay type: cell-based; conditions: Homo sapiens, HEK293, 24 h, read-out: ED50 values of cytotoxicity
# Method: as §1
# Hep2 = experiment: MTT cytotoxicity assay, Hep2 larynx; assay type: cell-based; conditions: Homo sapiens, HEp-2, 24 h, read-out: ED50 values of cytotoxicity
# Method: as §1
# PA 1 = experiment: MTT cytotoxicity assay, PA 1 ovary; assay type: cell-based; conditions: Homo sapiens
# Method: as §1
# L132 = experiment: MTT cytotoxicity assay, L132 lung; assay type: cell-based; conditions: Homo sapiens
# Method: as §1
# PTC = experiment: MTT cytotoxicity assay, PTC colon; assay type: cell-based; conditions: Homo sapiens
# Method: as §1
# INT 407 = experiment: MTT cytotoxicity assay, INT 407 intestine; assay type: cell-based; conditions: Homo sapiens, 24 h, read-out: ED50 values of cytotoxicity
# Method: as §1
# Miapaca2 = experiment: MTT cytotoxicity assay, Miapaca2 pancreas; assay type: cell-based; conditions: Homo sapiens
# Method: as §1
# MCF7 = experiment: MTT cytotoxicity assay, MCF7 breast; assay type: cell-based; conditions: Homo sapiens
# Method: as §1
# [1] = 1.0 mM, read-out: Percent cytotoxicity
# [2] = 2.5 mM, read-out: Percent cytotoxicity
# [3] = 4 mM, read-out: Percent cytotoxicity
# [4] = 5 mM, read-out: Percent cytotoxicity
# [5] = 10 mM, read-out: Percent cytotoxicity
# [6] = 24 h, read-out: ED50 values of cytotoxicity
structure (smiles),measurement,setting,value
"CCCCOC(=O)C1CCC(=O)N1C(O)C(C)=O (centres unmarked) [MGC-2, N-(1-hydroxy-2-ketopropyl)-butylpyroglutamate]",safe dose,Swiss albino mice,75 mg
same,IC50,"MOLT 4; 24 h, Molt 4 Leukemia, read-out: ED50 values of cytotoxicity",< 1000 µM
same,cytotoxicity at 1000 µM,"MOLT 4; MOLT 4 Leukemia, 1.0 mM, read-out: Percent cytotoxicity",75.9%
same,cytotoxicity at 2500 µM,"MOLT 4; MOLT 4 Leukemia, 2.5 mM, read-out: Percent cytotoxicity",85.9 ± 6.3%
same,cytotoxicity at 4000 µM,"MOLT 4; MOLT 4 Leukemia, 4 mM, read-out: Percent cytotoxicity",87.8 ± 5%
same,cytotoxicity at 5000 µM,"MOLT 4; MOLT 4 Leukemia, 5 mM, read-out: Percent cytotoxicity",88.2 ± 5.9%
same,cytotoxicity at 10000 µM,"MOLT 4; MOLT 4 Leukemia, 10 mM, read-out: Percent cytotoxicity",90.2 ± 7.2%
same,IC50,U87MG,3150 ± 1100 µM
same,IC50,KB,2600 ± 500 µM
same,cytotoxicity at 1000 µM,"DU145; DU-145, 1.0 mM, read-out: Percent cytotoxicity",43.9%
same,cytotoxicity at 2500 µM,"DU145; DU-145, 2.5 mM, read-out: Percent cytotoxicity",53.9 ± 3.8%
same,cytotoxicity at 4000 µM,"DU145; DU-145, 4 mM, read-out: Percent cytotoxicity",58.9 ± 4.3%
same,cytotoxicity at 5000 µM,"DU145; DU-145, 5 mM, read-out: Percent cytotoxicity",67.9 ± 5.2%
same,cytotoxicity at 10000 µM,"DU145; DU-145, 10 mM, read-out: Percent cytotoxicity",86.9 ± 6.9%
same,IC50,"DU145; DU-145, 24 h, read-out: ED50 values of cytotoxicity",1600 ± 100 µM
same,IC50,293,2000 ± 800 µM
same,IC50,Hep2,2000 ± 300 µM
same,IC50,"PA 1; 24 h, PA 1 Ovarian, read-out: ED50 values of cytotoxicity",1200 ± 200 µM
same,cytotoxicity at 2500 µM,"PA 1; PA 1 Ovary, 2.5 mM, read-out: Percent cytotoxicity",57.9 ± 4.5%
same,cytotoxicity at 4000 µM,"PA 1; PA 1 Ovary, 4 mM, read-out: Percent cytotoxicity",67.9 ± 5.4%
same,cytotoxicity at 5000 µM,"PA 1; PA 1 Ovary, 5 mM, read-out: Percent cytotoxicity",84.9 ± 4.8%
same,cytotoxicity at 10000 µM,"PA 1; PA 1 Ovary, 10 mM, read-out: Percent cytotoxicity",87.9 ± 6.3%
same,cytotoxicity at 1000 µM,L132; [1],34.8%
same,cytotoxicity at 2500 µM,L132; [2],58.5 ± 3.6%
same,cytotoxicity at 4000 µM,L132; [3],62.9 ± 2.9%
same,cytotoxicity at 5000 µM,L132; [4],87.8 ± 5.8%
same,cytotoxicity at 10000 µM,L132; [5],88.6 ± 3%
same,IC50,L132; [6],1900 ± 800 µM
same,cytotoxicity at 1000 µM,PTC; [1],45.8%
same,cytotoxicity at 2500 µM,PTC; [2],68.9 ± 5.3%
same,cytotoxicity at 4000 µM,PTC; [3],85.9 ± 6.2%
same,cytotoxicity at 5000 µM,PTC; [4],88.8 ± 5.3%
same,cytotoxicity at 10000 µM,PTC; [5],86.9 ± 5%
same,IC50,PTC; [6],1600 ± 100 µM
same,IC50,INT 407,2700 ± 800 µM
same,cytotoxicity at 1000 µM,"Miapaca2; MIA PaCa-2, 1.0 mM, read-out: Percent cytotoxicity",34.8%
same,cytotoxicity at 2500 µM,"Miapaca2; MIA PaCa-2, 2.5 mM, read-out: Percent cytotoxicity",64.9 ± 5.9%
same,cytotoxicity at 4000 µM,"Miapaca2; MIA PaCa-2, 4 mM, read-out: Percent cytotoxicity",74.9 ± 3.8%
same,cytotoxicity at 5000 µM,"Miapaca2; MIA PaCa-2, 5 mM, read-out: Percent cytotoxicity",76.9 ± 4%
same,cytotoxicity at 10000 µM,"Miapaca2; MIA PaCa-2, 10 mM, read-out: Percent cytotoxicity",84.9 ± 6.3%
same,IC50,"Miapaca2; MIA PaCa-2, 24 h, read-out: ED50 values of cytotoxicity",1700 ± 600 µM
same,IC50,"MCF7; MCF7, 24 h, MCF 7 Breast, read-out: ED50 values of cytotoxicity",2500 ± 400 µM
same,cytotoxicity at 1000 µM,"MCF7; MCF7 breast, 1.0 mM, read-out: Percent cytotoxicity",34.7%
same,cytotoxicity at 2500 µM,"MCF7; MCF7 breast, 2.5 mM, read-out: Percent cytotoxicity",50.6 ± 4.1%
same,cytotoxicity at 4000 µM,"MCF7; MCF7 breast, 4 mM, read-out: Percent cytotoxicity",57.9 ± 4.8%
same,cytotoxicity at 5000 µM,"MCF7; MCF7 breast, 5 mM, read-out: Percent cytotoxicity",67.9 ± 4%
same,cytotoxicity at 10000 µM,"MCF7; MCF7 breast, 10 mM, read-out: Percent cytotoxicity",78.9 ± 5.2%
